The results in this text go back to patent publication US10081624B2, “Heterocyclic compound” (Takeda Pharmaceutical Company Limited, priority 2014, dated 2018).

For one experiment, the target named is T1, HDAC1 enzyme (Homo sapiens, UniProt Q13547).
T1 construct: prepared by transducing full length HDAC1 and HDAC6 genes into Sf-9 insect cells; GST; purchased SignalChem; host or cells: Sf-9 insect cells
Put plainly: HDAC1 enzyme inhibitory assay (HDAC-Glo I/II Assay kit). Type of experiment: biochemical. The conditions noted are these: 1 μM test compound; for inhibition at 1 µM: read-out: HDAC1 inhibitory rate (%) (1 μM). In a few lines: (§1)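 Luminescent HDAC-Glo I/II read-out after 20 min room-temperature reaction with substrate-developer, following a 60 min room-temperature enzyme–compound preincubation. Enzymes: full-length HDAC1 or HDAC6 from Sf-9 cells, GST-purified; buffer pH 7.5 Tris with NaCl, glutathione, 0.01% Tween-20. No-enzyme wells defined 100% inhibition.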

The target of the next experiment is T2, HDAC6 enzyme (Homo sapiens, UniProt Q9UBN7).
T2 construct: prepared by transducing full length HDAC1 and HDAC6 genes into Sf-9 insect cells; GST; purchased SignalChem; host or cells: Sf-9 insect cells
T2 sequence (Q9UBN7 1-1215): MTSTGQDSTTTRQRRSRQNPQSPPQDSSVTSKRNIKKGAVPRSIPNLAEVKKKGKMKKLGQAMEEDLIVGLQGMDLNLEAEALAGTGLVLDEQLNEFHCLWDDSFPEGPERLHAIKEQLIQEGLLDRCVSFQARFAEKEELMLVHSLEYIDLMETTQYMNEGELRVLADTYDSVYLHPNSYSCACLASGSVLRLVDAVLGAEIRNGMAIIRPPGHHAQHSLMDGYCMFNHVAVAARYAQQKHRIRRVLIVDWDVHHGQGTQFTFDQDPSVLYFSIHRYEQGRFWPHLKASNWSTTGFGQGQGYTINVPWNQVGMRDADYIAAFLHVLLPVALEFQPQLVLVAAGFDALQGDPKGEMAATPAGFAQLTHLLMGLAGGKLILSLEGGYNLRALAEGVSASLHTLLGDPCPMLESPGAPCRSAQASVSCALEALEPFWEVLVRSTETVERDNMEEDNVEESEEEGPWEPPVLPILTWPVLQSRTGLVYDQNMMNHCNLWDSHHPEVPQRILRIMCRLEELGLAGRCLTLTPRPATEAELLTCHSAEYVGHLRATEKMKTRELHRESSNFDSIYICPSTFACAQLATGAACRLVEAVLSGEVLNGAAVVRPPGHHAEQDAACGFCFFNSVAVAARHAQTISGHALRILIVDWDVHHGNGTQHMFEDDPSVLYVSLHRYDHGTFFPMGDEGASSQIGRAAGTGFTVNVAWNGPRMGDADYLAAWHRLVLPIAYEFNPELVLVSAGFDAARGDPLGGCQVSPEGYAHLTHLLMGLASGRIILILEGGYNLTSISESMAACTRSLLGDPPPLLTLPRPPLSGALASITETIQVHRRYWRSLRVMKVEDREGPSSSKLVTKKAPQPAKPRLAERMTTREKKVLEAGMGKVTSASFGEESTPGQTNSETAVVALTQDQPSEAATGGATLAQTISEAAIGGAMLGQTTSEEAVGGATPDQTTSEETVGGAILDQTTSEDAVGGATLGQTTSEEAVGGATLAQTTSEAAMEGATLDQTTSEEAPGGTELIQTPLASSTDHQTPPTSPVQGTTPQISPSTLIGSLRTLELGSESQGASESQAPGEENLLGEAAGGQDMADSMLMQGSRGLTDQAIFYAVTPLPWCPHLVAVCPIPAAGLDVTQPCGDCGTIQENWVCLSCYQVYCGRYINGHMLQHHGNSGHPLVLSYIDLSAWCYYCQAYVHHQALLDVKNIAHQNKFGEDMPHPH
Put plainly: HDAC6 enzyme inhibitory assay (HDAC-Glo I/II Assay kit). Type of experiment: biochemical. The conditions noted are these: 1 μM test compound; for inhibition at 1 µM: read-out: HDAC6 inhibitory rate (%) (1 μM). In outline: as §1

T1 sequence (Q13547 whole entry): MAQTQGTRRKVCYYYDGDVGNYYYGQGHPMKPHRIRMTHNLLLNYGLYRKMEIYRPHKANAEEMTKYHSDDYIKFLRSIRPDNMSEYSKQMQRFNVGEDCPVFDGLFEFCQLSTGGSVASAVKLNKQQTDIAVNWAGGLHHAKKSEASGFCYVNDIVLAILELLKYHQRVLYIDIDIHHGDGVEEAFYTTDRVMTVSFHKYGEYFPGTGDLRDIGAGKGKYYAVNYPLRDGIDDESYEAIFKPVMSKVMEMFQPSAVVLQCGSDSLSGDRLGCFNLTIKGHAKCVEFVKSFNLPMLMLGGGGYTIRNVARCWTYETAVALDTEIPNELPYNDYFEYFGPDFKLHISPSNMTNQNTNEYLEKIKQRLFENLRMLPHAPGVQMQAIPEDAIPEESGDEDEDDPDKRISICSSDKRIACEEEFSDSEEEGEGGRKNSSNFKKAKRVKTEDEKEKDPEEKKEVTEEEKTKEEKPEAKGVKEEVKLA

For the compound `O=C(NCC1COCCN1C(=O)CCc1ccccc1)c1ccc(-c2noc(C(F)(F)F)n2)cc1` (stereo not drawn) [Example 22, N-((4-(3-phenylpropanoyl)morpholin-3-yl)methyl)-4-(5-(trifluoromethyl)-1,2,4-oxadiazol-3-yl)benzamide], the values for the inhibition at 1 µM on HDAC1 enzyme and at HDAC6 enzyme were 23% and 100%, respectively.
For `O=C(NCC1COCCN1C(=O)c1ccc(-c2ccccc2)cc1)c1ccc(-c2noc(C(F)(F)F)n2)cc1` (stereo not drawn) [Example 23, N-((4-(biphenyl-4-ylcarbonyl)morpholin-3-yl)methyl)-4-(5-(trifluoromethyl)-1,2,4-oxadiazol-3-yl)benzamide] the same measures were 36% and 95%.
`O=C(NCC1COCCN1C(=O)C1CC1)c1ccc(-c2noc(C(F)(F)F)n2)cc1` (stereo not drawn) [Example 24, N-((4-(cyclopropylcarbonyl)morpholin-3-yl)methyl)-4-(5-(trifluoromethyl)-1,2,4-oxadiazol-3-yl)benzamide]: the inhibition at 1 µM came out at 8% on HDAC1 enzyme and 93% at HDAC6 enzyme.
In the same order, the values of `O=C(NCC1COCCN1C(=O)C1CCCCC1)c1ccc(-c2noc(C(F)(F)F)n2)cc1` (stereo not drawn) [Example 25, N-((4-(cyclohexylcarbonyl)morpholin-3-yl)methyl)-4-(5-(trifluoromethyl)-1,2,4-oxadiazol-3-yl)benzamide] are 20% and 102%.
On to `O=C(NCC1COCCN1C(=O)C1CCOCC1)c1ccc(-c2noc(C(F)(F)F)n2)cc1` (stereo not drawn) [Example 26, N-((4-(tetrahydro-2H-pyran-4-ylcarbonyl)morpholin-3-yl)methyl)-4-(5-(trifluoromethyl)-1,2,4-oxadiazol-3-yl)benzamide], for which the inhibition at 1 µM at HDAC1 enzyme was 10%; at HDAC6 enzyme, 95%.
Consider `O=C(NCC1COCCN1C(=O)c1cccc(C(F)(F)F)c1)c1ccc(-c2noc(C(F)(F)F)n2)cc1` (stereo not drawn) [Example 27, N-((4-(3-(trifluoromethyl)benzoyl)morpholin-3-yl)methyl)-4-(5-(trifluoromethyl)-1,2,4-oxadiazol-3-yl)benzamide], for which the inhibition at 1 µM at HDAC1 enzyme was 14%; on HDAC6 enzyme, 99%.
As to `N#Cc1cccc(C(=O)N2CCOCC2CNC(=O)c2ccc(-c3noc(C(F)(F)F)n3)cc2)c1` (stereo not drawn) [Example 28, N-((4-(3-cyanobenzoyl)morpholin-3-yl)methyl)-4-(5-(trifluoromethyl)-1,2,4-oxadiazol-3-yl)benzamide], the results for the inhibition at 1 µM at HDAC1 enzyme and at HDAC6 enzyme were 14% and 98%, respectively.
In the same order, the values of `COc1cccc(C(=O)N2CCOCC2CNC(=O)c2ccc(-c3noc(C(F)(F)F)n3)cc2)c1` (stereo not drawn) [Example 29, N-((4-(3-methoxybenzoyl)morpholin-3-yl)methyl)-4-(5-(trifluoromethyl)-1,2,4-oxadiazol-3-yl)benzamide] are 19% and 99%.
For `O=C(NCC1COCCN1C(=O)c1cc(Cl)cc(Cl)c1)c1ccc(-c2noc(C(F)(F)F)n2)cc1` (stereo not drawn) [Example 30, N-((4-(3,5-dichlorobenzoyl)morpholin-3-yl)methyl)-4-(5-(trifluoromethyl)-1,2,4-oxadiazol-3-yl)benzamide] the same measures were 24% and 98%.
For the compound `O=C(NCC1COCCN1C(=O)c1cccc(-c2ccccc2)c1)c1ccc(-c2noc(C(F)(F)F)n2)cc1` (stereo not drawn) [Example 31, N-((4-(biphenyl-3-ylcarbonyl)morpholin-3-yl)methyl)-4-(5-(trifluoromethyl)-1,2,4-oxadiazol-3-yl)benzamide], the inhibition at 1 µM at HDAC1 enzyme stood at 28%; on HDAC6 enzyme, 96%.
For `O=C(NCC1COCCN1C(=O)c1ccccc1-c1ccccc1)c1ccc(-c2noc(C(F)(F)F)n2)cc1` (stereo not drawn) [Example 32, N-((4-(biphenyl-2-ylcarbonyl)morpholin-3-yl)methyl)-4-(5-(trifluoromethyl)-1,2,4-oxadiazol-3-yl)benzamide] the same measures were 23% and 96%.
Regarding `Cn1nc2ccccc2c1C(=O)N1CCOCC1CNC(=O)c1ccc(-c2noc(C(F)(F)F)n2)cc1` (stereo not drawn) [Example 33, N-((4-((2-methyl-2H-indazol-3-yl)carbonyl)morpholin-3-yl)methyl)-4-(5-(trifluoromethyl)-1,2,4-oxadiazol-3-yl)benzamide], the inhibition at 1 µM at HDAC1 enzyme worked out at 47%; on HDAC6 enzyme, 99%.
In the same order, the values of `O=C(NCC1COCCN1C(=O)c1ccnc(C2CC2)c1)c1ccc(-c2noc(C(F)(F)F)n2)cc1` (stereo not drawn) [Example 34, N-((4-(2-cyclopropylisonicotinoyl)morpholin-3-yl)methyl)-4-(5-(trifluoromethyl)-1,2,4-oxadiazol-3-yl)benzamide] are 18% and 98%.
`O=C(NCC1COCCN1C(=O)C1CCc2ccccc2O1)c1ccc(-c2noc(C(F)(F)F)n2)cc1` (stereo not drawn) [Example 35, N-((4-(3,4-dihydro-2H-chromen-2-ylcarbonyl)morpholin-3-yl)methyl)-4-(5-(trifluoromethyl)-1,2,4-oxadiazol-3-yl)benzamide]: the inhibition at 1 µM was 30% on HDAC1 enzyme and 92% at HDAC6 enzyme.
Consider `O=C(NC[C@H]1COCCN1C(=O)c1ccccc1)c1ccc(-c2noc(C(F)(F)F)n2)cc1` [Example 36, N-(((3S)-4-benzoylmorpholin-3-yl)methyl)-4-(5-(trifluoromethyl)-1,2,4-oxadiazol-3-yl)benzamide], for which the “HDAC1 inhibitory rate (%) (1 μM)” value on HDAC1 enzyme turned out to be 21%. In addition, the “HDAC6 inhibitory rate (%) (1 μM)” value on HDAC6 enzyme stood at 105%.
As to `O=C(NC[C@H]1COCCN1C(=O)c1cc(Cl)cc(Cl)c1)c1ccc(-c2noc(C(F)(F)F)n2)cc1` [Example 37, N-(((3S)-4-(3,5-dichlorobenzoyl)morpholin-3-yl)methyl)-4-(5-(trifluoromethyl)-1,2,4-oxadiazol-3-yl)benzamide], the “HDAC1 inhibitory rate (%) (1 μM)” value on HDAC1 enzyme (1 µM) was determined as 27%. On HDAC6 enzyme, the “HDAC6 inhibitory rate (%) (1 μM)” value came to 98%.
As to `Cn1nccc1C(=O)N1CCOC[C@@H]1CNC(=O)c1ccc(-c2noc(C(F)(F)F)n2)cc1` [Example 38, N-(((3S)-4-((1-methyl-1H-pyrazol-5-yl)carbonyl)morpholin-3-yl)methyl)-4-(5-(trifluoromethyl)-1,2,4-oxadiazol-3-yl)benzamide], the values for the inhibition at 1 µM on HDAC1 enzyme and at HDAC6 enzyme were 25% and 100%, respectively.
Regarding `O=C(NC[C@H]1COCCN1C(=O)c1cc(F)cc(F)c1)c1ccc(-c2noc(C(F)(F)F)n2)cc1` [Example 39, N-(((3S)-4-(3,5-difluorobenzoyl)morpholin-3-yl)methyl)-4-(5-(trifluoromethyl)-1,2,4-oxadiazol-3-yl)benzamide], the inhibition at 1 µM on HDAC1 enzyme stood at 18%; at HDAC6 enzyme, 100%.
On to `N#Cc1cc(F)cc(C(=O)N2CCOC[C@@H]2CNC(=O)c2ccc(-c3noc(C(F)(F)F)n3)cc2)c1` [Example 40, N-(((3S)-4-(3-cyano-5-fluorobenzoyl)morpholin-3-yl)methyl)-4-(5-(trifluoromethyl)-1,2,4-oxadiazol-3-yl)benzamide], for which the inhibition at 1 µM on HDAC1 enzyme is 17%; at HDAC6 enzyme, 99%.
On to `O=C(NC[C@H]1COCCN1C(=O)c1cccc(F)c1)c1ccc(-c2noc(C(F)(F)F)n2)cc1` [Example 41, N-(((3S)-4-(3-fluorobenzoyl)morpholin-3-yl)methyl)-4-(5-(trifluoromethyl)-1,2,4-oxadiazol-3-yl)benzamide], for which the “HDAC1 inhibitory rate (%) (1 μM)” value at HDAC1 enzyme (1 µM) is 65%. For the same compound, at HDAC6 enzyme, the “HDAC6 inhibitory rate (%) (1 μM)” value is 98%.
As for `COc1cccc(C(=O)N2CCOC[C@@H]2CNC(=O)c2ccc(-c3noc(C(F)(F)F)n3)cc2)c1` [Example 42, N-(((3S)-4-(3-methoxybenzoyl)morpholin-3-yl)methyl)-4-(5-(trifluoromethyl)-1,2,4-oxadiazol-3-yl)benzamide], on HDAC1 enzyme, the inhibition at 1 µM was determined as 16%. Besides, the “HDAC6 inhibitory rate (%) (1 μM)” value at HDAC6 enzyme is 101%.
